Measurements from ChEMBL document CHEMBL5113515, “The Discovery of GSK3640254, a Next-Generation Inhibitor of HIV-1 Maturation” (J Med Chem, 2022).

How the values were obtained:
[1] = tested on: Human immunodeficiency virus 1; experiment: Binding affinity to HIV1 wild type Gag assessed as dissociation constant by measuring half life
[2] = tested on: Human immunodeficiency virus 1; experiment: Antiviral activity against HIV1 harbouring V362I/V370A mutant infected in human MT2 cells measured after 4 to 5 days by dual-luciferase reporter assay; assay type: functional, organism-based; conditions: Human immunodeficiency virus 1, MT2
[3] = tested on: Human immunodeficiency virus 1; experiment: Antiviral activity against HIV1 wild type NL (4 to 3) infected in human MT2 cells measured after 4 to 5 days in presence of human serum by dual-luciferase reporter assay; assay type: functional, organism-based; conditions: Human immunodeficiency virus 1, MT2
[4] = Volume of distribution at steady state in overnight fasted cynomolgus monkey at 2 mg/kg, po or 1 mg/kg, iv; assay type: ADME, organism-based, Macaca fascicularis; conditions: in vivo
[5] = tested on: Human immunodeficiency virus 1; experiment: Antiviral activity against HIV1 wild type subtype B NL (4 to 3) harbouring V362/Q369/V370/T371 transfected in human HEK293T cells by dual-luciferase reporter assay; assay type: functional, organism-based; conditions: Human immunodeficiency virus 1, HEK-293T
[6] = Volume of distribution at steady state in overnight fasted Sprague-Dawley rat at 5 mg/kg, po or 1 mg/kg, iv; assay type: ADME, organism-based; conditions: in vivo
[7] = tested on: Human immunodeficiency virus 1; experiment: Antiviral activity against HIV1 NL (4 to 3) harbouring V362I mutant transfected in human HEK293T cells by dual-luciferase reporter assay; assay type: functional, organism-based; conditions: Human immunodeficiency virus 1, HEK-293T
[8] = Volume of distribution at steady state in overnight fasted mouse at 5 mg/kg, po or 1 mg/kg, iv; assay type: ADME, organism-based; conditions: in vivo
[9] = tested on: Human immunodeficiency virus 1; experiment: Antiviral activity against HIV1 wild type NL (4 to 3) infected in human MT2 cells measured after 4 to 5 days by dual-luciferase reporter assay; assay type: functional, organism-based; conditions: Human immunodeficiency virus 1, MT2
[10] = Volume of distribution at steady state in overnight fasted Beagle dog at 2 mg/kg, po or 1 mg/kg, iv; assay type: ADME, organism-based, Canis lupus familiaris; conditions: in vivo
[11] = tested on: Human immunodeficiency virus 1; experiment: Antiviral activity against HIV1 NL (4 to 3) harbouring V362I/deltaV370 mutant transfected in human HEK293T cells by dual-luciferase reporter assay; assay type: functional, organism-based; conditions: Human immunodeficiency virus 1, HEK-293T
[12] = AUC(0 to t) in overnight fasted Beagle dog at 2 mg/kg, po or 1 mg/kg, iv; assay type: ADME, organism-based, Canis lupus familiaris; design: dose 2 mg/kg, route po; conditions: in vivo
[13] = Binding affinity to HIV1 wild type Gag assessed as dissociation constant; design: species or system Human immunodeficiency virus 1
MT2 = experiment: Cytotoxicity in human MT2 cells assessed as reduction in cell viability; assay type: functional
[14] = tested on: Human immunodeficiency virus 1; experiment: Antiviral activity against HIV1 harbouring deltaV370/T371A mutant infected in human MT2 cells measured after 4 to 5 days by dual-luciferase reporter assay; assay type: functional, organism-based; conditions: Human immunodeficiency virus 1, MT2
[15] = Oral bioavailability in overnight fasted cynomolgus monkey using spray-dried dispersion at 2 mg/kg; assay type: ADME, organism-based, Macaca fascicularis; conditions: in vivo
[16] = tested on: Human immunodeficiency virus 1; experiment: Antiviral activity against HIV1 virus harboring NL (4 to 3) harbouring […]/V370A mutant transfected in human HEK293T cells by luciferase reporter assay; assay type: functional, organism-based; conditions: Human immunodeficiency virus 1, HEK-293T
[17] = AUC(0 to t) in overnight fasted Sprague-Dawley rat at 5 mg/kg, po or 1 mg/kg, iv; assay type: ADME, organism-based; design: dose 5 mg/kg, route po; conditions: in vivo
[18] = Oral bioavailability in overnight fasted Beagle dog using spray-dried dispersion at 2 mg/kg; assay type: ADME, organism-based, Canis lupus familiaris; conditions: in vivo
[19] = AUC(0 to t) in overnight fasted mouse at 5 mg/kg, po or 1 mg/kg, iv; assay type: ADME, organism-based; design: dose 5 mg/kg, route po; conditions: in vivo
[20] = tested on: Human immunodeficiency virus 1; experiment: Antiviral activity against HIV in plasma assessed log10 reduction of HIV RNA over 40 mg/kg, po measured after 11 days; assay type: functional; conditions: time 11 day
[21] = tested on: Human immunodeficiency virus 1; experiment: Antiviral activity against HIV1 wild type subtype B NL (4 to 3) transfected in human HEK293T cells by dual-luciferase reporter assay; assay type: functional, organism-based; conditions: Human immunodeficiency virus 1, HEK-293T
[22] = tested on: Human immunodeficiency virus 1; experiment: Antiviral activity against HIV1 wild type subtype C NL (4 to 3) transfected in human HEK293T cells by dual-luciferase reporter assay; assay type: functional, organism-based; conditions: Human immunodeficiency virus 1, HEK-293T
[23] = Cmax in overnight fasted cynomolgus monkey at 2 mg/kg, po or 1 mg/kg, iv; assay type: ADME, organism-based, Macaca fascicularis; design: dose 2 mg/kg, route po; conditions: in vivo
[24] = Half life in overnight fasted Beagle dog at 1 mg/kg, iv; assay type: ADME, organism-based, Canis lupus familiaris; conditions: in vivo
[25] = Cmax in overnight fasted Beagle dog at 2 mg/kg, po or 1 mg/kg, iv; assay type: ADME, organism-based, Canis lupus familiaris; design: dose 2 mg/kg, route po; conditions: in vivo
[26] = AUC(0 to t) in overnight fasted cynomolgus monkey at 2 mg/kg, po or 1 mg/kg, iv; assay type: ADME, organism-based, Macaca fascicularis; design: dose 2 mg/kg, route po; conditions: in vivo
[27] = tested on: Human immunodeficiency virus 1; experiment: Antiviral activity against HIV1 harbouring T332S/V362I/prR41G mutant infected in human MT2 cells measured after 4 to 5 days by dual-luciferase reporter assay; assay type: functional, organism-based; conditions: Human immunodeficiency virus 1, MT2
[28] = Solubility of the compound in FeSSIF at pH 5.0; assay type: physicochemical
[29] = Solubility of the compound in FaSSIF at pH 6.5; assay type: physicochemical
[30] = Aqueous solubility of compound at pH 1 to 8; assay type: physicochemical
[31] = AUC in rat at 5 mg/kg, po; assay type: ADME, organism-based; design: dose 5 mg/kg, route po; conditions: in vivo, read-out: AUC

C=C(C)[C@@H]1CC[C@]2(NCCN3CCS(=O)(=O)CC3)CC[C@]3(C)[C@H](CC[C@@H]4[C@@]5(C)CC=C(C6=CC[C@@](CF)(C(=O)O)CC6)C(C)(C)[C@@H]5CC[C@]43C)[C@@H]12
T1/2 [1]: 5.73 h

C=C(C)[C@@H]1CC[C@]2(NCCN3CCS(=O)(=O)CC3)CC[C@]3(C)[C@H](CC[C@@H]4[C@@]5(C)CC=C(c6ccc(C(=O)O)cc6)C(C)(C)[C@@H]5CC[C@]43C)[C@@H]12 [BMS-955176]
EC50 [2]: > 3000 nM
EC50 [3]: 10.2 nM
Vdss [4]: 0.43 L/kg
EC50 [5]: 2.8 nM
Vdss [6]: 1.1 L/kg
EC50 [7]: 11.1 nM
Vdss [8]: 0.82 L/kg
EC50 [9]: 5 nM
Vdss [10]: 0.36 L/kg
EC50 [11]: 1400 nM
AUCt [12]: 29.3 µM·h
Kd [13]: 1.4 nM
CC50 (MT2): 13 µM
EC50 [14]: 6 nM
bioavailability [15]: 4%
EC50 [16]: > 3000 nM
AUC(0-t) [17]: 14.2 µM·h
F [18]: 9%
AUC(0-t) [19]: 21.6 µM·h
T1/2 [1]: 0.717 h
Activity [20]: >1 log10IU/ml
EC50 [21]: 66 nM
EC50 [22]: 9.1 nM
Cmax [23]: 100 nM
half-life [24]: 1900 min
Cmax [25]: 600 nM
AUC(0-t) [26]: 1 µM·h
EC50 [27]: 704 nM

C=C(C)[C@@H]1CC[C@]2(NCCN3CCS(=O)(=O)CC3)CC[C@]3(C)[C@H](CC[C@@H]4[C@@]5(C)CC=C(C6=CC[C@@](CF)(C(=O)O)CC6)C(C)(C)[C@@H]5CC[C@]43C)[C@@H]12.Cl.Cl
solubility [28]: 800 µg/mL
solubility [29]: 310 µg/mL
solubility [30]: < 1 µg/mL

C=C(C)[C@@H]1CC[C@]2(NCCN3CCC(S(C)(=O)=O)CC3)CC[C@]3(C)[C@H](CC[C@@H]4[C@@]5(C)CC=C(C6=CCC(C(=O)O)(C(F)F)CC6)C(C)(C)[C@@H]5CC[C@]43C)[C@@H]12 (stereo partly specified)
EC50 [2]: 2.5 nM
EC50 [3]: 12.7 nM
EC50 [9]: 1.9 nM
CC50 (MT2): 11 µM
EC50 [14]: 1.3 nM
AUC [31]: 17.9 µM·h
EC50 [27]: 6.6 nM

C=C(C)[C@@H]1CC[C@]2(NCCN3CCC(S(C)(=O)=O)CC3)CC[C@]3(C)[C@H](CC[C@@H]4[C@@]5(C)CC=C(C6=CCC(CCO)(C(=O)O)CC6)C(C)(C)[C@@H]5CC[C@]43C)[C@@H]12 (stereo partly specified)
EC50 [2]: 2.2 nM
EC50 [3]: 154 nM
EC50 [9]: 3 nM
CC50 (MT2): 4.9 µM
EC50 [14]: 3.7 nM
AUC [31]: 0.591 µM·h
EC50 [27]: 10.1 nM
